Source: patent publication US8981094B2, “Piperidine/piperazine derivatives” (Janssen Pharmaceutica N.V., priority 2007, dated 2015)
pIC50: −log10 of the molar value.

What follows are compounds tested against T1, human DGAT1 (Homo sapiens, UniProt O75907) (assay: Inhibition of DGAT1 activity, FlashPlate assay with DGAT1 membrane preparations and substrate micelles). Settings: pIC50 = -logIC50, IC50 values expressed in M.
T1 construct: FLAG (N); made in house; host or cells: SF9 insect cells (pFastBac baculovirus); total cell membranes
T1 sequence (O75907 1-488): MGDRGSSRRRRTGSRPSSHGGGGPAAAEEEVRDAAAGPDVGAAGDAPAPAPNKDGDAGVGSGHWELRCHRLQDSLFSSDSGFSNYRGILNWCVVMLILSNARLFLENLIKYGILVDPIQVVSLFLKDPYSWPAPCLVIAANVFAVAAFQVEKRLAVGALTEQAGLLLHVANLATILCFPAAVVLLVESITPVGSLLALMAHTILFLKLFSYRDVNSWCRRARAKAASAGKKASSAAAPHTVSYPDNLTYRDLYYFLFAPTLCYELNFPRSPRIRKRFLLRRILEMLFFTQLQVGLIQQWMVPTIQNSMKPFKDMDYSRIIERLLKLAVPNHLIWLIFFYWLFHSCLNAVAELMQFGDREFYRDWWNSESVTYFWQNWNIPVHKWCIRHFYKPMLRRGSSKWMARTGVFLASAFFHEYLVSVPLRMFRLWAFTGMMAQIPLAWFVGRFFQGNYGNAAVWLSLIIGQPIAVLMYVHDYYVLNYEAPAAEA
Format: biochemical
Excerpt: A) Measurement of Inhibition of DGAT1 Activity by the Present Compounds
The inhibiting activity of the present compounds on DGAT1 activity was screened in a single well procedure assay using DGAT1 comprising membrane preparations and DGAT1 substrate comprising micelles and determining formed radio-active triacylglycerol coming in close proximity of a flashplate surface by radio luminescence.
Said assay is described in full detail in WO2006/067071, the content of which is incorporated herein by reference.
By DGAT1 activity is meant the transfer of coenzyme A activated fatty acids to the 3-position of 1,2-diacylglycerols, thus forming a triglyceride molecule, by enzyme DGAT1.
human DGAT1 (NM012079.2) was cloned into the pFastBac vector, containing translation start, a FLAG-tag at the N-terminus as described in literature and a viral Kozak sequence (AAX) preceding the ATG to improve expression in insect cells. Expression was done as described in literature (Cases, S., Smith, S. J., Zheng, Y., Myers H. M., Lear, S. R., Sande, E., Novak, S., Collins, C., Welch, C. B., Lusis, A. J., Erickson, S. K. and Farese, R. V. (1998) Proc. Natl. Acad. Sci. USA 95, 13018-13023.) using SF9 cells.
72 h transfected SF9 cells were collected by centrifugation (13000 rpm-15 min-4° C.) and lysed in 2×500 ml lysisbuffer (0.1M Sucrose, 50 mM KCl, 40 mM KH2PO4, 30 mM EDTA pH 7.2. Cells were homogenized by cell disruptor. After centrifugation 1380 rpm-15 min-4° C. (SN discarded), pellet was resuspended in 500 ml lysisbuffer and total cell membranes collected by ultracentrifugation at 34000 rpm(100 000 g) for 60 min (4° C.). The collected membranes were resuspended in lysis buffer, divided in aliquots and stored with 10% glycerol at −80° C. until use.
Add 1 ml dioleoyl-sn-glycerol (10 mg/ml) to 10 ml of L-α-phosphatidylcholine (1 mg/ml) and 10 ml of L-α-phosphatidyl-L-serine (1 mg/ml) in a thick glass recipient. Evaporate under nitrogen and put on ice for 15 minutes. Reconstitute in 10 ml Tris/HCl (10 mM, pH 7.4) by sonication on ice. The sonification process consists of sonification cycles of 10 seconds in the sonification bath followed by 10 seconds cool down on ice and repeating this sonification cycle till a homogeneous solution is obtained (takes about 15 minutes). The thus obtained micelles are stored at −20° C. till later use and contain DAG at a final concentration of 1.61 mM.
c) Substrate mix (for 1 384 well plate=3840 μl) • 612 μl micelles stock (51 μM final) • 16.6 μl oleoylCoA 9.7 mM • 23 μl [^3H]-oleoylCoA (49 Ci/mmol, 500 μCi/ml) • 3188.4 μl Tris pH 7.4, 10 mM
d) Enzyme mix (for 1 384 well plate=3520 μl) (5 μg/ml) • Add 11.73 μl of DGAT membrane stock (1500 μg/ml stock) to 3508 μl assay buffer.
e) Stop mix (for 1 384 well plate=7.68 ml) (250 mM) • Add 384 μl of N-ethylmaleimide (5M) to 3.456 ml DMSO 100%, and further dilute 3.84 ml of said solution with 3.84 ml DMSO 10%.
DGAT activity in membrane preparations was assayed in 50 mM Tris-HCl (pH 7.4), 150 mM MgCl2, 1 mM EDTA and 0.2% BSA, containing 50 μM DAG, 32 μg/ml PC/PS and 8.4 μM [^3H]-oleoylCoA (at a specific activity of 30 nCi/well) in a final volume of 50 μl in 384-well format using the red shifted Basic Image FlashPlate™ (Perkin Elmer Cat.No. SMP400).
In detail, 10 μl enzyme mix and 10 μl substrate mix were added to 30 μl of assay buffer, optionally in the presence of 1 μl DMSO (blank and controls) or 1 μl of the compound to be tested. This reaction mixture was incubated for 120 minutes at 37° C. and the enzymatic reaction stopped by adding 20 μl of the stop mix. The plates were sealed and the vesicles allowed to settle overnight at room temperature. Plates were centrifuged for 5 minutes at 1500 rpm and measured in Leadseeker. […]

SMILES | pIC50
CC(C)CC(NC(=O)OC(C)(C)C)C(=O)Nc1ccc(C2CCN(C(=O)Nc3c(Cl)cccc3Cl)CC2)cc1 (single isomer, unassigned) [Compound 33] | 7.45
CC(=O)NC1(C(=O)Nc2ccc(N3CCN(C(=O)Nc4c(Cl)cccc4Cl)CC3)cc2)CCCC1 [Compound 2] | 5.54
C=CCNCC(=O)Nc1ccc(C2CCN(C(=O)Nc3c(Cl)cccc3Cl)CC2)cc1 [Compound 20] | 6.24
CC(CN)C(=O)Nc1ccc(C2CCN(C(=O)Nc3c(Cl)cccc3Cl)CC2)cc1 (stereo not drawn) [Compound 23] | 5.59
CC(C)(C)OC(=O)N1CCCC1CC(=O)Nc1ccc(C2CCN(C(=O)Nc3c(Cl)cccc3Cl)CC2)cc1 (stereo not drawn) [Compound 39] | 7.77
CN(CC(=O)Nc1ccc(C2CCN(C(=O)Nc3c(Cl)cccc3Cl)CC2)cc1)C(=O)OC(C)(C)C [Compound 40] | 8.11
Cc1cccc(NCC(=O)Nc2ccc(C3CCN(C(=O)Nc4c(Cl)cccc4Cl)CC3)cc2)c1 [Compound 97] | 7.31
CC1CN(CC(=O)Nc2ccc(C3CCN(C(=O)Nc4c(Cl)cccc4Cl)CC3)cc2)CC(C)O1 (stereo not drawn) [Compound 98] | 7.30
CCCCCCCN(C)CC(=O)Nc1ccc(C2CCN(C(=O)Nc3c(Cl)cccc3Cl)CC2)cc1 [Compound 99] | 7.59
CCOC(=O)c1ccc(N2CCCN(CC(=O)Nc3ccc(C4CCN(C(=O)Nc5c(Cl)cccc5Cl)CC4)cc3)CC2)cc1 [Compound 101] | 6.86
O=C(CN1CCN(c2cccc(C(F)(F)F)c2)CC1)Nc1ccc(C2CCN(C(=O)Nc3c(Cl)cccc3Cl)CC2)cc1 [Compound 103] | 6.40
Cc1ccc(C)c(N2CCN(CC(=O)Nc3ccc(C4CCN(C(=O)Nc5c(Cl)cccc5Cl)CC4)cc3)CC2)c1 [Compound 104] | 6.90
Cc1cc(C)cc(N2CCN(CC(=O)Nc3ccc(C4CCN(C(=O)Nc5c(Cl)cccc5Cl)CC4)cc3)CC2)c1 [Compound 105] | 6.77
O=C(CN1CCC(F)(F)CC1)Nc1ccc(C2CCN(C(=O)Nc3c(Cl)cccc3Cl)CC2)cc1 [Compound 107] | 6.74
CC1(C)CCN(CC(=O)Nc2ccc(C3CCN(C(=O)Nc4c(Cl)cccc4Cl)CC3)cc2)CC1 [Compound 108] | 6.60
CN(C)CC(=O)Nc1ccc(C2CCN(C(=O)Nc3c(Cl)cccc3Cl)CC2)cc1 [Compound 109] | 5.63
COCCN(C)CC(=O)Nc1ccc(C2CCN(C(=O)Nc3c(Cl)cccc3Cl)CC2)cc1 [Compound 110] | 5.85
O=C(CN1CCOCC1)Nc1ccc(C2CCN(C(=O)Nc3c(Cl)cccc3Cl)CC2)cc1 [Compound 111] | 5.92
O=C(CN1CCCCC1)Nc1ccc(C2CCN(C(=O)Nc3c(Cl)cccc3Cl)CC2)cc1 [Compound 112] | 6.10
CCCCCCCNCC(=O)Nc1ccc(C2CCN(C(=O)Nc3c(Cl)cccc3Cl)CC2)cc1 [Compound 115] | 6.69
O=C(CNCC1CC1)Nc1ccc(C2CCN(C(=O)Nc3c(Cl)cccc3Cl)CC2)cc1 [Compound 116] | 6.24

Second part, the compound after the results:

pIC50 | SMILES
8.67 | CC(O)c1cc(Cl)c(NC(=O)N2CCN(c3ccc(NC(=O)CCCc4ccccc4)cc3)CC2)c(Cl)c1 (single isomer, unassigned) [Compound 270]
8.49 | CC(O)c1cc(Cl)c(NC(=O)N2CCN(c3ccc(NC(=O)CCCc4ccccc4)cc3)CC2)c(Cl)c1 (single isomer, unassigned) [Compound 271]
7.33 | O=C(CCN(Cc1ccccc1Cl)S(=O)(=O)c1ccccc1[N+](=O)[O-])Nc1ccc(N2CCN(C(=O)Nc3c(Cl)cccc3Cl)CC2)cc1 [Compound 6]
5.96 | CCCCCCC(=O)Nc1ccc(N2CCN(C(=O)N(C)c3c(Cl)cccc3Cl)CC2)cc1 [Compound 10]
7.53 | O=C(CCCc1ccccc1)Nc1ccc(N2CCN(C(=O)Nc3c(Cl)cc(OC(F)(F)F)cc3Cl)CC2)cc1 [Compound 13]
8.34 | COc1ccc(CC(=O)Nc2ccc(N3CCN(C(=O)Nc4c(Cl)cc(OC)cc4Cl)CC3)cc2)cc1 [Compound 15]
5.65 | Cc1ccc(CC(=O)Nc2ccc(N3CCN(S(=O)(=O)c4ccccc4C)CC3)cc2)c(C)c1 [Compound 17]
7.47 | O=C(CCCc1ccccc1)Nc1ccc(N2CCN(C(=O)Nc3c(Cl)cc(C(=O)O)cc3Cl)CC2)cc1 [Compound 27]
6.31 | Cc1ccc(CC(=O)Nc2ccc(N3CCN(C(=O)Nc4cccc5ccccc45)CC3)cc2)c(C)c1 [Compound 38]
5.29 | CC(=O)NCCC(=O)Nc1ccc(N2CCN(C(=O)Nc3c(Cl)cccc3Cl)CC2)cc1 [Compound 44]
6.87 | COC(=O)c1cc(Cl)c(NC(=O)N2CCN(c3ccc(NC(=O)CCCc4ccccc4)cc3)CC2)c(Cl)c1 [Compound 47]
7.45 | O=C(CCCc1ccccc1)Nc1ccc(N2CCN(C(=O)Cc3c(Cl)cccc3Cl)CC2)cc1 [Compound 52]
7.33 | CC(=O)c1cc(Cl)c(NC(=O)N2CCN(c3ccc(NC(=O)CCCc4ccccc4)cc3)CC2)c(Cl)c1 [Compound 53]
7.99 | CC(N)c1cc(Cl)c(NC(=O)N2CCN(c3ccc(NC(=O)CCCc4ccccc4)cc3)CC2)c(Cl)c1 (stereo not drawn) [Compound 55]
7.97 | CC(NCCCO)c1cc(Cl)c(NC(=O)N2CCN(c3ccc(NC(=O)CCCc4ccccc4)cc3)CC2)c(Cl)c1 (stereo not drawn) [Compound 57]
7.64 | COc1ccc(NC(=O)N2CCN(c3ccc(NC(=O)CCCc4ccccc4)cc3)CC2)c(C)c1 [Compound 65]
6.86 | O=C(CCCc1ccccc1)Nc1ccc(N2CCN(C(=O)Nc3ccccc3C(F)(F)F)CC2)cc1 [Compound 70]
6.31 | COC(=O)c1cccc(NC(=O)N2CCN(c3ccc(NC(=O)CCCc4ccccc4)cc3)CC2)c1C [Compound 72]
6.76 | COc1ccc(NC(=O)N2CCN(c3ccc(NC(=O)CCCc4ccccc4)cc3)CC2)c([N+](=O)[O-])c1 [Compound 74]
6.22 | COc1ccc(NC(=O)N2CCN(c3ccc(NC(=O)CCCc4ccccc4)cc3)CC2)c(OC)c1 [Compound 75]
5.25 | COc1ccc(C)cc1NC(=O)N1CCN(c2ccc(NC(=O)CCCc3ccccc3)cc2)CC1 [Compound 76]
6.23 | O=C(CCCc1ccccc1)Nc1ccc(N2CCN(C(=O)Nc3ccccc3[N+](=O)[O-])CC2)cc1 [Compound 80]
7.06 | O=C(CNc1ccccc1)Nc1ccc(C2CCN(C(=O)Nc3c(Cl)cccc3Cl)CC2)cc1 [Compound 100]
6.64 | CCc1cccc(N2CCN(CC(=O)Nc3ccc(C4CCN(C(=O)Nc5c(Cl)cccc5Cl)CC4)cc3)CC2)c1 [Compound 106]
